Measured values taken from patent publication US20230242521A1, “PHARMACEUTICAL COMPOSITION FOR PREVENTING OR TREATING PANCREATIC CANCER ASSOCIATED WITH RON MUTATION AND METHOD USING SAME” (WELLMARKER BIO CO., LTD., priority 2020, published 2023).
Counter-ions that a name gives are not always drawn.

How the values were obtained:
cleaved caspase 3 = assay: Immunochemical staining of tumor tissue, Mia-PaCa2 transplanted mouse model: cleaved caspase 3; assay type: in vivo; settings: 10 mpk, 30 mpk, Mia-PaCa2 transplanted mice
Protocol: (§1) FIG. 3 illustrates the results obtained by immunochemical staining of the tumor tissue for a mouse model transplanted with the Mia-PaCa2 cell line, which is a pancreatic cancer cell line of a mutation RONΔ160 type, having received Example 1 (WM-S1-030) at a dose of 10 mpk or 30 mpk and the positive control (BMS-777607) at a dose of 30 mpk.
(§2) Example 1 (WM-S1-030) was administered at each concentration (10 mpk, 30 mpk) and positive control 1 (BMS-777607) was administered at a dose of 30 mpk to a mouse model transplanted with the Mia-PaCa2 cell line, which is a pancreatic cancer cell line of a mutation RONΔ160 type. The tumor was extracted, and the expression changes of the proteins were analyzed by immunochemical staining.
(§3) Specifically, paraffin slides were prepared using tissues isolated from the sacrificed mice. The tissue sections were deparaffinized and rehydrated, immersed in the target recovery buffer 1× (ScyTek Laboratories, Cat #CBB999) and heated for 15 minutes to perform an antigen recovery process. After the reaction, the tissue sections were washed in Tris buffered saline-0.05% Tween 20 (TBS-T) (T&I, BTT-9310) for 5 minutes, and then the reaction was performed with a non-specific antibody response blocking reagent (vector, SP-5035) for 1 hour. […]

[1] = test system: Mia-PaCa2 pancreatic cancer cell line (mutation RONΔ160 type); assay: MTS assay, cell growth inhibitory ability, Mia-PaCa2; assay type: cell-based; settings: Homo sapiens; Mia-PaCa-2, RON mutation Δ160, cultured 72 hours
Protocol: (§4) In order to compare and confirm the cell growth inhibitory ability of Examples 1 (WM-S1-030) to 5 and positive control 1 (BMS-777607) in two pancreatic cancer cell lines ofa mutation RONΔ155 type (Panc-1 and Capan-1) and one pancreatic cancer cell line of a mutation RONΔ160 type (Mia-PaCa2), MTS assay was carried out.
(§5) For MTS assay, 1,000 cells of each pancreatic cancer cell line per well were seeded in a 96-well-plate, and 24 hours later, treated with the compounds of Examples 1 to 5 and positive control 1 at various concentrations (0.000001 μM to 10 μM) in 100 μL of 10% FBS-RPMI medium (Welgene) per each well. Thereafter, the cells were cultured for 72 hours. 20 μL of MTS solution (Promega) was added and cultured for 2 hours, and then absorbance was measured at 490 nm. The cytotoxicity was analyzed by deriving the IC50 for the compounds of Examples 1 to 5 and positive control 1 using GraphPad Prism™ 5.

[2] = test system: Panc-1 pancreatic cancer cell line (mutation RONΔ155 type); assay: MTS assay, cell growth inhibitory ability, Panc-1; assay type: cell-based; settings: Homo sapiens; Panc-1, RON mutation Δ155, cultured 72 hours
Protocol: as §4, §5

pTyr-mRON = assay: Immunochemical staining of tumor tissue, Mia-PaCa2 transplanted mouse model: pTyr-mRON; assay type: in vivo; settings: 10 mpk, 30 mpk, Mia-PaCa2 transplanted mice
Protocol: as §1, §2, §3

[3] = test system: Mia-PaCa2 (mRONΔ160) pancreatic cancer cell line transplanted tumor; assay: Tumor growth inhibition in Mia-PaCa2 transplanted mouse model; assay type: in vivo; settings: orally once a day for 4 weeks; for Tumor growth inhibition rate (TGI, %): 30 mg/kg, BALB/c-nude mice with Mia-PaCa2 tumor; for tumor growth inhibition (in words): 30 mpk, Mia-PaCa2 transplanted mice
Text: FIG. 2 illustrates the results obtained by confirming the tumor growth rate for a mouse model transplanted with the Mia-PaCa2 cell line, which is a pancreatic cancer cell line of a mutation RONΔ160 type, having received Example 1 (WM-S1-030) at a dose of 30 mpk and positive control 1 (BMS-777607) at a dose of 30 mpk. It was confirmed whether tumor growth was inhibited by administering Example 1 (WM-S1-030) at a dose of 30 mpk to a mouse model transplanted with Mia-PaCa2, which is a pancreatic cancer cell line of a mutation RONΔ160 type. Specifically, 5-week-old female BALB/c-nude mice were purchased and acclimatized for 1 week. Thereafter, Mia-PaCa2 (2×10^6 cells/mouse), a pancreatic cancer cell line of a mutation RONΔ160 type, was diluted in PBS (phosphate buffered saline) and Matrigel, and 100 μL was injected subcutaneously into the right dorsal side of the mouse. When the size of the tumor reached about 100 mm^3, the negative control (excipient) and Example 1 were orally administered. In this case, positive control 1 (BMS-777607) was administered at a dose of 30 mpk. The drug was administered once a day for 4 weeks, and the tumor size and body weight were measured twice a week. After the drug administration was completed, the mice were euthanized, the tumor was extracted, and the weight was measured.

cyclin D1 = assay: Immunochemical staining of tumor tissue, Mia-PaCa2 transplanted mouse model: cyclin D1; assay type: in vivo; settings: 10 mpk, 30 mpk, Mia-PaCa2 transplanted mice
Protocol: as §1, §2, §3

[4] = test system: Capan-1 pancreatic cancer cell line (mutation RONΔ155 type); assay: MTS assay, cell growth inhibitory ability, Capan-1; assay type: cell-based; settings: Homo sapiens; Capan-1, RON mutation Δ155, cultured 72 hours
Protocol: as §4, §5

[5] = test system: pancreatic cancer cell lines of a mutation RON type (Panc-1, Capan-1, Mia-PaCa2); assay: Cell killing efficacy, trypan blue exclusion assay; assay type: cell-based; settings: 1 μM and 5 μM, 48 hours
Protocol: FIGS. 1A to IC illustrate the results obtained by comparing and confirming the cell killing efficacy for the Panc-1 and Capan-1 cell lines, which are pancreatic cancer cell lines of a mutation RONΔ155 type, and the Mia-PaCa2 cell line, which is a pancreatic cancer cell line of a mutation RONΔ160 type, having been treated with the compounds of Examples 1 (WM-S1-030) to 5 and positive control 1 (BMS-777607) at a concentration of 1 μM and 5 μM, respectively.
Two pancreatic cancer cell lines of a mutation RONΔ155 type (Panc-1 and Capan-1) and one pancreatic cancer cell line of a mutation RONΔ160 type (Mia-PaCa2) were dispensed, and 24 hours later, treated with 1 μM and 5 μM of the compounds of Examples 1 (WM-S1-030) to 5 and positive control 1 (BMS-777607), respectively, while replacing the medium. After 48 hours, the cells and the cell fluid were harvested (1,500 rpm, 4 minutes), and live cells and dead cells were quantified through trypan blue (15250-061, Gibco) exclusion assay. Statistical analysis was performed using T-test in Excel.

[6] = test system: pancreatic cancer cell lines of mutation RONΔ155 type (Panc-1 and Capan-1) and RONΔ160 type (Mia-PaCa2); assay: MTS assay, text summary over the three pancreatic cancer cell lines; assay type: cell-based; settings: Panc-1, Capan-1, Mia-PaCa2; 0.000001 μM to 10 μM, 72 hours
Protocol: as §4, §5

**Q.** Which “expression of cleaved caspase 3 in tumor tissue” value (cleaved caspase 3) does the source give for `CCOc1ccn(-c2ccc(F)cc2)c(=O)c1C(=O)Nc1ccc(Oc2ccnc3cc(-c4ccc(CN5CCOCC5)cn4)sc23)c(F)c1.Cl` [Example 1, 4-ethoxy-N-[3-fluoro-4-({2-[5-(morpholinomethyl)pyridin-2-yl]thieno[3,2-b]pyridin-7-yl}oxy)phenyl]-1-(4-fluorophenyl)-2-oxo-1,2-dihydropyridine-3-carboxamide hydrochloride] here?
**A.** the expression of cleaved caspase 3 was induced

**Q.** What about the IC50 [1] of the same compound?
**A.** 620 nM

**Q.** And the IC50 [2]?
**A.** 2440 nM

**Q.** What about the “expression of pTyr-mRON in tumor tissue” value (pTyr-mRON) of the same compound?
**A.** the expression of pTyr-mRON was decreased

**Q.** And the “Tumor growth inhibition rate (TGI, %)” value [3]?
**A.** 57.2 ± 3.1%

**Q.** What about the “tumor growth inhibition (in words)” value [3] of the same compound?
**A.** tumor growth was significantly inhibited

**Q.** And the “expression of cyclin D1 (PD marker) in tumor tissue” value (cyclin D1)?
**A.** the expression of cyclin D1, a PD marker, was decreased

**Q.** What about the IC50 [4] of the same compound?
**A.** 630 nM

**Q.** Which IC50 [1] does the source give for `CCOc1ccn(-c2ccccc2)c(=O)c1C(=O)Nc1ccc(Oc2ccnc3cc(-c4ccc(CNCCOC)cn4)sc23)c(F)c1` [Example 2, 4-ethoxy-N-(3-fluoro-4-{[2(5-{[(2-methoxyethyl)amino]methyl}pyridin-2-yl)thieno[3,2-b]pyridin-7-yl]oxy}phenyl)-2-oxo-1-phenyl-1,2-dihydropyridine-3-carboxamide hydrochloride] here?
**A.** 1840 nM

**Q.** And the IC50 [2]?
**A.** 3880 nM

**Q.** What about the IC50 [4] of the same compound?
**A.** 1540 nM

**Q.** For `CCOc1ccn(-c2ccccc2)c(=O)c1C(=O)Nc1ccc(Oc2ccnc3cc(-c4ccc(CN5CCN(C)CC5)cn4)sc23)c(F)c1` [Example 3, 4-ethoxy-N-{3-fluoro-4-[(2-(5-[(-methylpiperazin-1-yl)methyl]pyridin-2-yl)thieno[3,2-b]pyridin-7-yl)oxy]phenyl}-2-oxo-1-phenyl-1,2-dihydropyridine-3-carboxamide hydrochloride], which IC50 [1] is on record?
**A.** 250 nM

**Q.** What about the IC50 [2] of the same compound?
**A.** 1090 nM

**Q.** What about the IC50 [4] of the same compound?
**A.** 370 nM

**Q.** Which results are given for `COc1cc2c(Oc3ccc(NC(=O)c4c5c(cn(-c6ccc(F)cc6)c4=O)CCO5)cc3F)ccnc2cc1OCCN1CCOCC1` [Example 4, N-(3-fluoro-4-{[6-methoxy-7-(2-morpholinoethoxy)quinolin-4-yl]oxy}phenyl)-5-(4-fluorophenyl)-6-oxo-2,3,5,6-tetrahydrofuro[3,2-c]pyridine-7-carboxamide]?
**A.** IC50 [1]: 370 nM; IC50 [2]: 460 nM; IC50 [4]: 320 nM

**Q.** With `COc1cc2c(Oc3ccc(NC(=O)c4c5c(cn(-c6ccc(F)cc6)c4=O)CCO5)cc3F)ccnc2cc1OCCCN1CC(C#N)C1` [Example 5, N-[4-({7-[3-(3-cyanoazetidin-1-yl)propoxy]-6-methoxyquinolin-4-yl}oxy)-3-fluorophenyl]-5-(4-fluorophenyl)-6-oxo-2,3,5,6-tetrahydrofuro[3,2-c]pyridine-7-carboxamide] as the compound, how does the IC50 [1] read?
**A.** 150 nM

**Q.** What about the IC50 [2] of the same compound?
**A.** 310 nM

**Q.** And the IC50 [4]?
**A.** 170 nM

**Q.** With `CCOc1ccn(-c2ccc(F)cc2)c(=O)c1C(=O)Nc1ccc(Oc2ccnc(N)c2Cl)c(F)c1` [Positive control 1, N-{4-[(2-amino-3-chloro-4-pyridinyl)oxy]-3-fluorophenyl}-4-ethoxy-1-(4-fluorophenyl)-2-oxo-1,2-dihydro-3-pyridinecarboxamide, reference compound] as the compound, how does the IC50 [1] read?
**A.** 6060 nM

**Q.** And the “cell death / response to the drug (trypan blue exclusion)” value [5]?
**A.** the response to the drug was low

**Q.** What about the IC50 [2] of the same compound?
**A.** > 10000 nM

**Q.** And the “Tumor growth inhibition rate (TGI, %)” value [3]?
**A.** 4.7 ± 7.4%

**Q.** What about the “tumor growth inhibition (in words)” value [3] of the same compound?
**A.** tumor growth was inhibited relatively little

**Q.** And the “response to the drug / cell growth inhibition (MTS)” value [6]?
**A.** the response to the drug was low

**Q.** And the IC50 [4]?
**A.** > 10000 nM
